In patent US20220169654A1, “New Organic Compounds” (Servier Pharmaceuticals LLC, priority 2020, published 2022):

Tests used:
HCT116 MTAP−/− = assay: Inhibition of cellular proliferation, 4 days, Cell Titer Glo, HCT116 MTAP−/−; assay type: cell-based; details: Homo sapiens, HCT-116, 96 h, IC50 bin with Max Inh., read-out: 4 Day Relative Growth Inhibition (MTAP −/−)
Summary of the method: (§1)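 Isogenic HCT116 pair differing only in MTAP status, plated 24 h before treatment with 10-point 3-fold dilutions; 4 days at 37° C./5% CO2. Cell Titer Glo luminescence, blank-subtracted and normalised to 0.2% DMSO control, gives percentage proliferation vs log molar concentration for IC50.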

[1] = test system: SAM in HCT116 human colon carcinoma cell line with MTAP gene deleted (MTAP −/−); assay: Cellular assay of target engagement (SAM), LC-MS/MS, 72 hrs; assay type: cell-based; details: HCT-116, IC50 bin with Max Inh., read-out: Cell 72 h SAM Inhibition (MTAP −/−)
Summary of the method: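 MTAP-deleted HCT116 cells plated 24 h, then given 10-point 3-fold dilutions for 72 hrs at 37° C. Intracellular SAM extracted in cold 80% methanol with 1M acetic acid and d3-SAM standard, quantified by LC-MS/MS (MRM m/z 399.2→250.1); IC50 derived.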

MAT2A homodimer = molecular target: T1, MAT2A homodimer (Homo sapiens, UniProt P31153); assay: MAT2A inhibition (biochemical, liberated phosphate, PiColorLock Gold); details: recombinant MAT2A homodimer; IC50 bin with Max Inh.; read-out: Enzyme Inhibition Bin
T1 construct: inferred from Ni sepharose purification with imidazole elution; made in house; host or cells: Sf9 insect cells, baculovirus (Bac to Bac, pFASTBAC1)
Summary of the method: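 Baculovirus/Sf9-expressed, Ni-purified MAT2A (4 μg/mL) preincubated with compound 60 min at 25 °C in Tris pH 8.0/KCl/MgCl2 buffer. Reaction started with 500 μM ATP and 400 μM L-methionine (substrate-mix concentrations), run 60 min at 25 °C. Phosphate measured colorimetrically against a phosphate standard curve to give IC50.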

HCT116 MTAP+/+ = assay: Inhibition of cellular proliferation, 4 days, Cell Titer Glo, HCT116 MTAP+/+; assay type: cell-based; details: Homo sapiens, HCT-116, 96 h, IC50 bin with Max Inh., read-out: 4 Day Relative Growth Inhibition (MTAP +/+)
Summary of the method: as §1

T1 sequence (P31153 whole entry): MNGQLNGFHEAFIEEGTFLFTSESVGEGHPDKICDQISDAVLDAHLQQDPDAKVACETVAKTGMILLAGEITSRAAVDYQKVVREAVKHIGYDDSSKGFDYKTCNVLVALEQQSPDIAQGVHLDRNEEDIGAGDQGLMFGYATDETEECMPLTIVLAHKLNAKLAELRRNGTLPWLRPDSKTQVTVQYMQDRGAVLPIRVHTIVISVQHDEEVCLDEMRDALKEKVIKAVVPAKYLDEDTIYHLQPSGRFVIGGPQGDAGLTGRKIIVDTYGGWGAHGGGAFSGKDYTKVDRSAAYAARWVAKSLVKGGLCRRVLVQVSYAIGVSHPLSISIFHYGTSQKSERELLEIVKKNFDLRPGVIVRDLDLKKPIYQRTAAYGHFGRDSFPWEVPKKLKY

Compound | IC50 (HCT116 MTAP−/−) [nM] | IC50 [1] [nM] | IC50 (MAT2A homodimer) [nM] | IC50 (HCT116 MTAP+/+) [nM]
Cc1ccc(-c2c(=O)n(-c3ccc4nc(C)n(C)c4c3)nc3c(C#N)cn(CC4CC4)c23)cn1 [Example 151, 5-(cyclopropylmethyl)-2-(1,2-dimethyl-1H-benzo[d]imidazol-6-yl)-4-(6-methylpyridin-3-yl)-3-oxo-3,5-dihydro-2H-pyrrolo[3,2-c]pyridazine-7-carbonitrile] | < 100 | < 100 | < 100 | > 1000
Cn1cc2cc(-n3nc4c(C#N)cn(C[C@@H]5CC5(F)F)c4c(-c4ccc(C5CC5)nc4)c3=O)ccc2n1 [Example 268, (S)-4-(6-cyclopropylpyridin-3-yl)-5-((2,2-difluorocyclopropyl)methyl)-2-(2-methyl-2H-indazol-5-yl)-3-oxo-3,5-dihydro-2H-pyrrolo[3,2-c]pyridazine-7-carbonitrile] | < 100 | < 100 | < 100 | > 1000
Cc1nc2ccc(-n3nc4ccn(CC5CC5)c4c(-c4ccc(C5CC5)nc4)c3=O)cc2n1C [Example 156, 5-(cyclopropylmethyl)-4-(6-cyclopropylpyridin-3-yl)-2-(1,2-dimethyl-1H-benzo[d]imidazol-6-yl)-2,5-dihydro-3H-pyrrolo[3,2-c]pyridazin-3-one] | < 100 | < 100 | < 100 | < 100
Cn1cc2cc(-n3nc4cnn(CC5CC5)c4c(-c4ccc(OC(F)F)cc4)c3=O)ccc2n1 [Example 218, 1-(cyclopropylmethyl)-7-(4-(difluoromethoxy)phenyl)-5-(2-methyl-2H-indazol-5-yl)-1,5-dihydro-6H-pyrazolo[4,3-c]pyridazin-6-one] | < 100 | < 100 | < 100 | 100 to 1000
CC(=O)c1cn(CC2CC2)c2c(-c3ccc(C4CC4)nc3)c(=O)n(-c3ccc4nn(C)cc4c3)nc12 [Example 236, 7-acetyl-5-(cyclopropylmethyl)-4-(6-cyclopropylpyridin-3-yl)-2-(2-methyl-2H-indazol-5-yl)-2,5-dihydro-3H-pyrrolo[3,2-c]pyridazin-3-one] | < 100 | < 100 | < 100 | > 1000
Cn1cc2cc(-n3nc4c(C#N)cn(C[C@H]5CC5(F)F)c4c(-c4ccc(C5CC5)nc4)c3=O)ccc2n1 [Example 269, (R)-4-(6-cyclopropylpyridin-3-yl)-5-((2,2-difluorocyclopropyl)methyl)-2-(2-methyl-2H-indazol-5-yl)-3-oxo-3,5-dihydro-2H-pyrrolo[3,2-c]pyridazine-7-carbonitrile] | > 1000 | < 100 | < 100 | > 1000
Cn1cc2cc(-n3nc4ncn(CC5CC5)c4c(-c4ccc(Cl)cc4)c3=O)ccc2n1 [Example 188, 4-(4-chlorophenyl)-5-(cyclopropylmethyl)-2-(2-methyl-2H-indazol-5-yl)-2,5-dihydro-3H-imidazo[4,5-c]pyridazin-3-one] | < 100 | < 100 | < 100 | 100 to 1000
Cn1cc2cc(-n3nc4ccn(CC5CC5)c4c(-c4ccc(OC(F)F)nc4)c3=O)ccc2n1 [Example 113, 5-(cyclopropylmethyl)-4-(6-(difluoromethoxy)pyridin-3-yl)-2-(2-methyl-2H-indazol-5-yl)-2,5-dihydro-3H-pyrrolo[3,2-c]pyridazin-3-one] | < 100 | < 100 | < 100 | > 1000
Cn1cc2cc(-n3nc4c(c(-c5ccc(Cl)cc5)c3=O)n(CC3CC3)c(=O)n4C)ccc2n1 [Example 199, 4-(4-chlorophenyl)-5-(cyclopropylmethyl)-7-methyl-2-(2-methyl-2H-indazol-5-yl)-2,7-dihydro-3H-imidazo[4,5-c]pyridazine-3,6(5H)-dione] | < 100 | < 100 | < 100 | > 1000
Cn1cc2cc(-n3nc4c(Br)cn(CC5CC5)c4c(-c4ccc(C5CC5)nc4)c3=O)ccc2n1 [Example 238, 7-bromo-5-(cyclopropylmethyl)-4-(6-cyclopropylpyridin-3-yl)-2-(2-methyl-2H-indazol-5-yl)-2,5-dihydro-3H-pyrrolo[3,2-c]pyridazin-3-one] | < 100 | < 100 | < 100 | > 1000
[2H]C([2H])([2H])Oc1ccc(-c2c(=O)n(-c3ccc4nn(C)cc4c3)nc3[nH]c(=O)n(CC4CC4)c23)cc1 [Example 206, 5-(cyclopropylmethyl)-4-(4-(methoxy-d3)phenyl)-2-(2-methyl-2H-indazol-5-yl)-2,7-dihydro-3H-imidazo[4,5-c]pyridazine-3,6(5H)-dione] | 100 to 1000 | < 100 | < 100 | > 1000
Cn1cc2cc(-n3nc4c(c(-c5ccc(C6CC6)nc5)c3=O)N(CC3CC3)CC4(C)C)ccc2n1 [Example 260, 5-(cyclopropylmethyl)-4-(6-cyclopropylpyridin-3-yl)-7,7-dimethyl-2-(2-methyl-2H-indazol-5-yl)-2,5,6,7-tetrahydro-3H-pyrrolo[3,2-c]pyridazin-3-one] | > 1000 | > 1000 | 1000 to 10000 | > 1000
Cn1cc2cc(-n3nc4ncn(CC5CC5)c4c(-c4ccc(C5CC5)cc4)c3=O)ccc2n1 [Example 192, 5-(cyclopropylmethyl)-4-(4-cyclopropylphenyl)-2-(2-methyl-2H-indazol-5-yl)-2,5-dihydro-3H-imidazo[4,5-c]pyridazin-3-one] | < 100 | < 100 | < 100 | 100 to 1000
[2H]C([2H])([2H])Oc1ccc(-c2c(=O)n(-c3ccc4nn(C)cc4c3)nc3c(C#N)cn(CC4CC4)c23)cc1 [Example 161, 5-(cyclopropylmethyl)-4-(4-(methoxy-d3)phenyl)-2-(2-methyl-2H-indazol-5-yl)-3-oxo-3,5-dihydro-2H-pyrrolo[3,2-c]pyridazine-7-carbonitrile] | < 100 | < 100 | < 100 | > 1000
Cn1cc2cc(-n3nc4nnn(CC5CC5)c4c(-c4ccc(OC(F)F)cc4)c3=O)ccc2n1 [Example 208, 1-(cyclopropylmethyl)-7-(4-(difluoromethoxy)phenyl)-5-(2-methyl-2H-indazol-5-yl)-1,5-dihydro-6H-[1,2,3]triazolo[4,5-c]pyridazin-6-one] | 100 to 1000 | < 100 | < 100 | 100 to 1000
Cc1ccc(-c2c(=O)n(-c3ccc4nn(C)cc4c3)nc3c2n(CC2CC2)c(=O)n3C)cn1 [Example 202, 5-(cyclopropylmethyl)-7-methyl-2-(2-methyl-2H-indazol-5-yl)-4-(6-methylpyridin-3-yl)-2,7-dihydro-3H-imidazo[4,5-c]pyridazine-3,6(5H)-dione] | 100 to 1000 | 100 to 1000 | < 100 | 100 to 1000
Cc1nc2ccc(-n3nc4c(C#N)cn(CC5CC5)c4c(-c4ccc(C5CC5)nc4)c3=O)cc2n1C [Example 148, 5-(cyclopropylmethyl)-4-(6-cyclopropylpyridin-3-yl)-2-(1,2-dimethyl-1H-benzo[d]imidazol-6-yl)-3-oxo-3,5-dihydro-2H-pyrrolo[3,2-c]pyridazine-7-carbonitrile] | < 100 | < 100 | < 100 | < 100
Cc1cc2nn(-c3ccc4nn(C)cc4c3)c(=O)c(-c3ccc(C4CC4)nc3)c2n1CC1CC1 [Example 263, 5-(cyclopropylmethyl)-4-(6-cyclopropylpyridin-3-yl)-6-methyl-2-(2-methyl-2H-indazol-5-yl)-2,5-dihydro-3H-pyrrolo[3,2-c]pyridazin-3-one] | > 1000 | < 100 | < 1000 | > 1000
Cn1cc2cc(-n3nc4c(C#N)cn(CC5CC5)c4c(-c4ccc5[nH]cc(C#N)c5c4)c3=O)ccc2n1 [Example 130, 4-(3-cyano-1H-indol-5-yl)-5-(cyclopropylmethyl)-2-(2-methyl-2H-indazol-5-yl)-3-oxo-3,5-dihydro-2H-pyrrolo[3,2-c]pyridazine-7-carbonitrile] | 100 to 1000 | < 100 | < 100 | > 1000
Cn1cc2cc(-n3nc4c(C#N)cn(CC5CC5)c4c(-c4ccc(C#N)cc4)c3=O)ccc2n1 [Example 149, 4-(4-cyanophenyl)-5-(cyclopropylmethyl)-2-(2-methyl-2H-indazol-5-yl)-3-oxo-3,5-dihydro-2H-pyrrolo[3,2-c]pyridazine-7-carbonitrile] | 100 to 1000 | 100 to 1000 | < 100 | > 1000
Cn1cc2cc(-n3nc4[nH]cc(CC5CC5)c4c(-c4ccc(OC(F)F)cc4)c3=O)ccc2n1 [Example 271, 5-(cyclopropylmethyl)-4-(4-(difluoromethoxy)phenyl)-2-(2-methyl-2H-indazol-5-yl)-2,7-dihydro-3H-pyrrolo[2,3-c]pyridazin-3-one] | < 100 | < 100 | < 100 | 100 to 1000
